Laboratory results reported in US20230220331A1, “TEMPORARY TREATMENT MEDIUM, TREATMENT KIT, EMBRYOGENESIS ARREST INHIBITOR, EMBRYOGENESIS ARREST INHIBITORY METHOD, DEVELOPMENTAL ENGINEERING PRODUCT PREPARATION METHOD, TRANSPLANTATION METHOD, THERAPEUTIC METHOD, AND DEVELOPMENTAL ENGINEERING PRODUCT” (priority 2020, published 2023).

Assays:
[1] = tested on: Wistar-Imamichi and WKY rat embryos; assay: Klotho (40 kbp) large deletion knockout rats by electroporation (Treatment Example 13); assay type: cell-based; settings: for large deletion (proportion of individuals) / large deletion (%): Klotho
Experimental: In the Wistar-Imamichi line, which are similar to the inbred line, and the inbred WKY line, when the Klotho gene (40 kbp), of which whole gene could not normally be deleted, were knocked out by electroporation, the temporarily treatment is processed as similar to Example 1 as described above. Specifically, before and after electroporation, 1 hour of temporary treatment, 24 hours of culture in the normal medium (waiting period), and 1 hour of temporary treatment were performed.

[2] = tested on: pig fertilized embryos that had undergone in vitro maturation and in vitro fertilization with frozen semen; assay: Development of electroporated pig IVM/IVF embryos (Treatment Example 5); assay type: cell-based
Experimental: 1. On the day before TAKE, 5 drops of Y-27632-added PZM-5 medium (Y-27632 final concentration 10 μM, an example of the “temporary treatment medium” of this example) was dropped on a 35 mm Petri dish to prepare a drop coated with paraffin oil. In the drop of this example, 20 μL of medium was added dropwise, 1 mL of oil was added, then 20 μL of medium was added again, and the mixture was completely covered with oil. This drop produced twice as many as the TAKE.
2. IVF was performed based on a method common to those skilled in the art.
3. On the day after fertilization, IVF embryos were placed in Y-27632-added PZM-5 medium and cultured for about 30 minutes to 1 hour (temporary treatment).
4. After that, TAKE was performed.
5. The embryos were returned to Y-27632-free PZM-5 medium (an example of the “normal medium” of this example) and cultured under the conditions of 39° C., 5% CO2, and 5% O2.
6. If necessary, sampling, or the like, was performed at the development stage. If the culture is to be continued until the blastocyst stage, the drops containing Y-27632-free PZM-5 medium and PBM medium was made in the same way as the step of “1.” at four days after insemination.
7. […]
In addition, the effect of the temporary treatment medium of this example was measured on pig fertilized embryos that had undergone in vitro maturation and in vitro fertilization with frozen semen.

C57BL/6J blastocysts = assay: Developmental efficiency of frozen embryo transfer (Treatment Example 18); assay type: cell-based, mouse; settings: C57BL/6J freeze-thawed blastocysts, 38 embryos transferred
Experimental: Specifically, in the blastocysts of C57BL/6J mice, a freeze-thaw manipulation was performed by using the above-mentioned temporary treatment medium by using Y-27632 or the normal medium as control. Further, an average of 20 blastocysts per recipient (MCH mouse) was transplanted into the uterus. The newborn was delivered by Caesarean section (CS), and the number of implantation marks and the number of newborns were confirmed. Weaning mice were suckled by foster parents, the number of weaning mice was confirmed, and the weaning survival rate was calculated. In addition, the embryo medium was used based on the mWM medium.

[3] = tested on: thawed 2-cell stage embryos of heterologous inbred SPR2 mouse; assay: Individuals by embryo transfer after freeze-thaw and electroporation (Treatment Example 5); assay type: cell-based, Mus spretus
Experimental: 1. Up to 3 hours before TAKE, Y-27632-added mWM medium (Y-27632 final concentration 10 μM, an example of the “temporary treatment medium” of this example), Y-27632-free mWM medium (an example of “normal medium” of this example) were dropped into 35 mm Petri dishes by 5 drops, respectively, to prepare drops covered with paraffin oil.
2. Two-cell stage embryos were collected from the drops or thawed, placed in Y-27632-added mWM medium, and cultured for about 30 minutes to 1 hour (temporary treatment).
3. After that, TAKE was performed.
4. After TAKE, the embryos were placed in Y-27632-added mWM medium and cultured for about 30 minutes to 1 hour (temporary treatment). Then, the embryos were placed in Y-27632-free mWM medium and cultured at 37° C. under 5% CO2 and 5% O2 conditions until transplantation.
Next, the effect of the temporary treatment medium of this example on the heterologous inbred SPR2 mouse, which cannot obtain the individual by embryo transfer after freeze-thaw and electroporation, was measured.
In the heterologous inbred SPR2 mouse, the thawed 2-cell stage embryos that were cultured in the temporary treatment medium of this example for the specific period before and after electroporation were used, […], and 7 individuals were able to be obtained. […]

[4] = tested on: frozen embryos of C57BL/6J; assay: Recovery of re-frozen and re-thawed blastocysts, cytochalasin B vs Y-27632 (Treatment Example 10); assay type: cell-based, mouse; settings: 10 μM in mWM; 19 embryos
Experimental: In this treatment example, as in the above-mentioned treatment example 9, the normal medium (hereinafter, referred to as “Y− medium” as in the treatment example 9), the temporary treatment medium to which Y-27632 is added (hereinafter, referred to as “Y+ medium” as in the treatment example 9), and a CB-added medium (hereinafter, referred to as “CB+ medium”) were used. The concentrations of CB in the CB+ medium were 5 μM and 10 μM are prepared. As the manipulation, the recovery rates when frozen embryos were thawed and developed, then re-frozen in blastocysts and re-thawed were compared.
For the treatment, 107 frozen embryos of C57BL/6J (provided from CLEA Japan, Inc.) at the 2-cell stage were used. Firstly, the frozen embryos at the 2-cell stage were thawed and blastocysts were developed as they were in a normal medium.
Then, the blastocysts were then transferred to each of the above media and placed for 30 minutes. Then, the embryos were transferred to Y− medium again and placed for 30 minutes.
Then, each embryo was frozen.
Then, the embryos were then thawed and placed in M2 medium for 10 minutes.
Then, each embryo was evenly divided and placed on the medium for 1 hour.
The embryos were observed by returning to the Y− medium again. This observation was performed immediately after thawing, 3 hours later, and 24 hours later.

[5] = Wistar-Imamichi, HIGH CONCENTRATION
[6] = Wistar-Imamichi, 164 transferred embryos
[7] = Wistar-Imamichi, LOW CONCENTRATION

C[C@@H](N)[C@H]1CC[C@H](C(=O)Nc2ccncc2)CC1 [Y-27632, trans-4-[(1R)-1-Aminoethyl]-N-4-pyrid inylcyclohexanecarboxamide]
large deletion (proportion of individuals) ([1]; WKY, high concentration, many pulses, 15 transferred embryos): 2/3 | large deletion (%) ([1]; WKY, high concentration, many pulses, listed as +Y): (66%) | large deletion (%) ([1]; WKY, high concentration, many pulses, listed as Y): 66.6% | KLOTHO LARGE DELETION HETERO % [1, 5]: 41.3% | KLOTHO LARGE DELETION HOMO % [1, 5]: 23.2% | NUMBER OF INDIVIDUALS, KLOTHO LARGE DELETION HETERO [1, 5]: 19/46 | NUMBER OF INDIVIDUALS, KLOTHO LARGE DELETION HOMO [1, 5]: 10/46 | large deletion (%) [1, 6]: (63%) | large deletion (proportion of individuals) [1, 6]: 29/46 | KLOTHO LARGE DELETION HETERO % [1, 7]: 16.6% | KLOTHO LARGE DELETION HOMO % [1, 7]: 0% | NUMBER OF INDIVIDUALS, KLOTHO LARGE DELETION HETERO [1, 7]: 3/18 | NUMBER OF INDIVIDUALS, KLOTHO LARGE DELETION HOMO [1, 7]: 0/18 | 2-cell stage embryos developed into late blastocysts (proportion) [2]: 35 out of 123 | Implantation mark (C57BL/6J blastocysts): 13 | Weaning (number of weaning mice) (C57BL/6J blastocysts): 10 | Weaning survival rate (C57BL/6J blastocysts): 100% | Pups (CS) (C57BL/6J blastocysts; Caesarean section): 10 | individuals obtained ([3]; SPR2 thawed 2-cell embryos, treated before and after electroporation, 17 2-cell embryos transplanted into the oviduct): 7 | individuals obtained ([3]; SPR2 thawed, electroporated, 16 blastocysts transplanted into the uterus 3.5 days after plug): 5 | RECOVERY RATE about 3 hours later [4]: 94% | RECOVERY RATE about 24 hours later [4]: 89% | RECOVERY RATE immediately after thawing [4]: 36% | number of embryos ABOUT 3 HOURS LATER [4]: 18 | number of embryos ABOUT 24 HOURS LATER [4]: 17 | number of embryos IMMEDIATELY AFTER THAWING [4]: 7
